What all share (type): biochemical
Experiment [1] has as its system deltaTts D DNA polymerase. The experiment is described as follows: Thermostable DNA polymerase primer extension, delta TTSD. More on the design: key to result of incorporation (termination / further chain extension): T: Incorporation results in termination; E: Incorporation permits further chain extension; T/E: Predominant product is primer extended by one base, but evidence of some further extension also observed. The note with it: DNA template, 45° C. for 20–40 minutes; for primer extended by at least one base within assay time (grade): TTP replaced entirely by test compound. Here is the method:
(§1) DNA polymerase assays were performed using Sequence 1 as primer and Sequence 2 as template. • Sequence 1 5′[Cy3]TAACTCATTAACAGGATC 3′ • Sequence 2 5′AT TCGCGGTATTCTGGTATGAAGCTTTTAGATCCTGTTAATGAGTTA GTA3′
(§2) The template (Sequence 2) was designed such that the base (underlined) immediately adjacent to the 3′ end of the hybridised primer is complementary to the nucleotide test compound. Nucleotide test compounds were compounds (6) (4′-C-(glycylaminomethyl)thymidine triphosphate), (8) (4′-C-(N-trifluoroacetyaminomethyl)thymidine triphosphate) and (9) (4′-C-(aminomethyl)thymidine triphosphate) as described above.
(§3) Primer extension reactions were performed using the above primers in the presence of 40 to 80 μM of nucleotide triphosphates. Positive control reactions contained all four native nucleotide triphosphates. For the other reactions the TTP was replaced with either a 2:1 ratio of […] for the terminator control, or entirely by the test compound The enzymes were used at a final concentration of 0.175 units/μl and a magnesium ion concentration of 2.5 mM in buffers supplied by the manufacturer. The primer and template concentrations were 0.5 pmol/μl and 2 pmol/μl respectively.
(§4) Extension reactions with thermophilic enzymes were performed by initially denaturing the fully assembled reactions at 70° C. for 5 min. followed by 45° C. for 20–40 minutes. The following enzymes were used: Taq DNA polymerase (Taq); Thermosequenase (TS); Thermosequenase II (TSII); Thermosequenase E (TSE), Tfl DNA polymerase (Tfl); Tth DNA polymerase (Tth), deltaTts DNA polymerase (deltaTts), deltaTts D DNA polymerase (dettaTTSD) (all from APBiotech); Pfu DNA polymerase (Pfu) (Stratagene Ltd); Vent™ DNA polymerase (Vent) (New England Biolabs).
(§5) The reactions were stopped by adding a 0.5 volume aliquot of 80% formamide containing 0.1% (w/v) bromophenol blue and 0.1% (w/v) cresol blue. The reaction products were separated by denaturing gel electrophoresis at a constant power of 45 W on 16% polyacrylamide gels containing 50% urea.
(§6) Gels were scanned for Cy3 fluorescence on a Molecular Dynamics Fluorimager and the data analysed using Molecular Dynamics ImageQuant 5 software.
(§7) The incorporation of a test nucleotide triphosphate results in the appearance on a polyacrylamide gel of a single band corresponding to a single base extension product. If, however, the enzyme adds additional bases then further bands would be observed that corresponded to either the full-length product or positions of other complementary bases in the template.

Another experiment relates to SAV RT. The experiment is described as follows: Mesophilic reverse transcriptase reaction, SAV RT. As to conditions: RNA template, final enzyme concentration of 4 units/μl. More on the design: key to result of incorporation (termination / further chain extension): T: Incorporation results in termination; E: Incorporation permits further chain extension; T/E: Predominant product is primer extended by one base, but evidence of some further extension also observed. As for the experimental part: as §1, §2, §3
(§8) Extension reactions preformed with mesophilic polymerases were carried out by mixing all the components of the reaction except the enzyme and heating to 70° C. for 5 min. After the reactions had cooled to room temperature 0.175 units of the enzyme were added and the reactions heated to 37° C. for 20–40 minutes. The following enzymes were used: T7 DNA polymerase (T7); Sequenase 2™ (Seq); Klenow fragment of DNA polymerase 1 (Klen); phi-29 DNA polymerase (Phi-29); T4 DNA polymerase (T4) (all from AP Biotech) and Bst DNA polymerase (Bst) (Cambio Ltd).
(§9) Reverse transcriptase reactions were performed essentially as described above for thermophilic and mesophilic enzymes. The template for these reactions was the RNA equivalent of sequence 2. All the thermophilic enzymes were assayed in Tth reaction buffer (Cambio Ltd, Cambridge UK) containing 2.5 mM Manganese ions. The following enzymes were used: Thermosequenase (TS1); Thermosequenase II (TSII); delta Tts DNA polymerase (deltaTts); delta Tts D DNA polymerase (deltaTtsD) (all from APBiotech); Retrotherm reverse transcriptase (Retroth) (Cambio Ltd); Tth DNA polymerase (Tth) (Cambio Ltd.).
Mesophilic reverse transcriptases (AMV RT; MuLV RT; SAV RT and HIV RT all from APBiotech) were assayed in their respective buffers with a final enzyme concentration of 4 units/μl.
as §5, §6, §7

In experiment [2] the target is T1, Klenow fragment of DNA polymerase 1 (Escherichia coli, UniProt P00582).
T1 construct: Klenow fragment of DNA polymerase 1 (Klen); purchased AP Biotech
Nature of the experiment: Mesophilic DNA polymerase primer extension, Klen. More on the design: key: −: No extension within assay time; +/−: up to 25% of primer extended by at least one base within assay time; +: up to 50% of primer extended by at least one base within assay time; ++: up to 75% of primer extended by at least one base within assay time; +++: essentially all primer extended by at least one base within assay time. As to conditions: DNA template, TTP replaced entirely by test compound, 37° C. for 20–40 minutes. Here is the method:
as §1, §2, §3, §8
The reactions were stopped by adding a 0.5 volume aliquot of 80% formamide containing 0.1% (w/v) bromophenol blue and 0.1% (w/v) cresol blue. […]
Gels were scanned for Cy3 fluorescence on a Molecular Dynamics Fluorimager and the data analysed using Molecular Dynamics ImageQuant 5 software. […]

In another experiment the test system is Thermosequenase II. The experiment is described as follows: Thermostable polymerase under reverse transcription conditions, TS II. More on the design: key to result of incorporation (termination / further chain extension): T: Incorporation results in termination; E: Incorporation permits further chain extension; T/E: Predominant product is primer extended by one base, but evidence of some further extension also observed. The note with it: RNA template, 2.5 mM Manganese ions; for primer extended by at least one base within assay time (grade): Tth reaction buffer. As for the experimental part:
as §1, §2, §3, §4, §9, §5, §6, §7

The target of the next experiment is T2, Tth DNA polymerase (Thermus thermophilus, UniProt P52028).
T2 construct: purchased APBiotech
Nature of the experiment: Thermostable polymerase under reverse transcription conditions, Tth. As to conditions: RNA template, 2.5 mM Manganese ions; for primer extended by at least one base within assay time (grade): Tth reaction buffer. Details: key to result of incorporation (termination / further chain extension): T: Incorporation results in termination; E: Incorporation permits further chain extension; T/E: Predominant product is primer extended by one base, but evidence of some further extension also observed; key to primer extended by at least one base within assay time (grade): −: No extension within assay time; +/−: up to 25% of primer extended by at least one base within assay time; +: up to 50% of primer extended by at least one base within assay time; ++: up to 75% of primer extended by at least one base within assay time; +++: essentially all primer extended by at least one base within assay time. As for the experimental part:
as §1, §2, §3, §4, §9, §5, §6, §7

The target in another experiment is T3, phi-29 DNA polymerase (Bacillus phage phi29, UniProt P03680).
T3 construct: purchased AP Biotech
Nature of the experiment: Mesophilic DNA polymerase primer extension, phi-29. Details: key to result of incorporation (termination / further chain extension): T: Incorporation results in termination; E: Incorporation permits further chain extension; T/E: Predominant product is primer extended by one base, but evidence of some further extension also observed. As to conditions: DNA template, 37° C. for 20–40 minutes; for primer extended by at least one base within assay time (grade): TTP replaced entirely by test compound. As for the experimental part:
as §1, §2, §3, §8, §5, §6, §7

The text below walks through data of US7078499B2, “Nucleotide analogues comprising a reporter moiety and a polymerase enzyme blocking moiety” (GE Healthcare UK Limited, priority 2000, dated 2006).

T2 sequence (P52028 whole entry): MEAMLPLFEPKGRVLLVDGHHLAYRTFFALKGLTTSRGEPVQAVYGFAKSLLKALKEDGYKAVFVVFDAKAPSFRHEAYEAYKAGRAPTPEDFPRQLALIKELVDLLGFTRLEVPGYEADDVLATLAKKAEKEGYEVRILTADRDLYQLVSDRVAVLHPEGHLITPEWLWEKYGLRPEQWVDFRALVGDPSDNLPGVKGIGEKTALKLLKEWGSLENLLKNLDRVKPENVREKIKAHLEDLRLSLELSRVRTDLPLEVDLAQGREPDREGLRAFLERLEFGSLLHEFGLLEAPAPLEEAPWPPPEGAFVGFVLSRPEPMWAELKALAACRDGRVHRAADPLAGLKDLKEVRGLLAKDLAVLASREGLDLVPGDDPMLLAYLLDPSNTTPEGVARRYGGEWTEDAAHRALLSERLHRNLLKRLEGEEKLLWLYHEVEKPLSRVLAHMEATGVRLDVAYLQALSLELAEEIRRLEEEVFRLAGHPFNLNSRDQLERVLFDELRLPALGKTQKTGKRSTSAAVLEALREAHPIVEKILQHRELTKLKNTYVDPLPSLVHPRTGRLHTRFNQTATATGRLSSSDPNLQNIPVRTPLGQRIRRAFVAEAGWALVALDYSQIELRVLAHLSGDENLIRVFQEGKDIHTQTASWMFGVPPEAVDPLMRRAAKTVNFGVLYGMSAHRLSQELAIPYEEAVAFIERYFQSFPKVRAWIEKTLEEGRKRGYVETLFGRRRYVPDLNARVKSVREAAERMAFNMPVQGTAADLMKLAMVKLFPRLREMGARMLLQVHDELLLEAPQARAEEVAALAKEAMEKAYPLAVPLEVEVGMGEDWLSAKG
T1 sequence (P00582 324-928): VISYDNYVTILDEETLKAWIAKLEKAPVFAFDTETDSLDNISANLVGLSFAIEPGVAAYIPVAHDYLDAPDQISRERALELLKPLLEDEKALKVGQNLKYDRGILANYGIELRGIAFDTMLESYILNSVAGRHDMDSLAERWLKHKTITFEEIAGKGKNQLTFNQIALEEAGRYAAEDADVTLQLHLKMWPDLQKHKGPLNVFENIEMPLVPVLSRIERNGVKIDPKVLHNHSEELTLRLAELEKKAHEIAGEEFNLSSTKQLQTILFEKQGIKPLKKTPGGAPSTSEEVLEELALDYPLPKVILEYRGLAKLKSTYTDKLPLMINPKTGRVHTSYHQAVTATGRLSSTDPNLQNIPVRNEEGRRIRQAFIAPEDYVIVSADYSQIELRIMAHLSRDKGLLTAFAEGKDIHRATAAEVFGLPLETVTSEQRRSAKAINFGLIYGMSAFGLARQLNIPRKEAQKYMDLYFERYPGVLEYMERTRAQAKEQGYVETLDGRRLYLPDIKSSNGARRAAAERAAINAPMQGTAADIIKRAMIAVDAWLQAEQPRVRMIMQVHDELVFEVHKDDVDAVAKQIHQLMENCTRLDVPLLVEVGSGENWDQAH
T3 sequence (P03680 whole entry): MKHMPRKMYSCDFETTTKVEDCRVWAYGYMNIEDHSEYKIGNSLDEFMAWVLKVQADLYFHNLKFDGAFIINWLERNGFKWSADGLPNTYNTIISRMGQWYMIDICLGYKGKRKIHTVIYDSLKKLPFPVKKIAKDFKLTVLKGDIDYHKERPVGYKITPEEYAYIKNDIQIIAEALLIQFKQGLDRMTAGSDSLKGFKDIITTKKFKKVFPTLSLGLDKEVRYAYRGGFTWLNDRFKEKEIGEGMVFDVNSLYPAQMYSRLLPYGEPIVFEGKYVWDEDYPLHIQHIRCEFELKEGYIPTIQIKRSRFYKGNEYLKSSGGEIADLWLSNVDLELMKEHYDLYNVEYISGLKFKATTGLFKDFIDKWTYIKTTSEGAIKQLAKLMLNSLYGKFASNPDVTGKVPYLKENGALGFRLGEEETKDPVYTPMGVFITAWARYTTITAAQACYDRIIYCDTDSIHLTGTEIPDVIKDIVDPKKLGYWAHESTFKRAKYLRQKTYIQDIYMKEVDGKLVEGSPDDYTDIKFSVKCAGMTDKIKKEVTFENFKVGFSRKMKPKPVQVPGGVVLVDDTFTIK

As for “4′-C-(Aminomethyl)thymidine triphosphate [compound (9)]”, the “result of incorporation (termination / further chain extension)” value in experiment [1] is given as “T/E”; in the experiment on SAV RT it was “E”; in the experiment with Thermosequenase II it was “E”; on Tth DNA polymerase it was “T”; on phi-29 DNA polymerase, “T”. The “primer extended by at least one base within assay time (grade)” value (“primer extended” for short) in experiment [1] is given as “++ (up to 75% of primer extended by at least one base within assay time)”; in the experiment with SAV RT, “++ (up to 75% of primer extended by at least one base within assay time)”; in experiment [2] it was “−”; with Thermosequenase II, “++ (up to 75% of primer extended by at least one base within assay time)”; on Tth DNA polymerase it was “+++”; on phi-29 DNA polymerase, “+/− (up to 25% of primer extended by at least one base within assay time)”.

As to “4′-C-(Glycylaminomethyl)thymidine triphosphate [compound (6)]”, the “result of incorporation (termination / further chain extension)” value is “T” in experiment [1]; “E?” in the experiment with SAV RT; “E” with Thermosequenase II; “T” on Tth DNA polymerase; “T” on phi-29 DNA polymerase. Further, the “primer extended” value is “++ (up to 75% of primer extended by at least one base within assay time)” in experiment [1]; “+ (up to 50% of primer extended by at least one base within assay time)” with SAV RT; “−” in experiment [2]; “+ (up to 50% of primer extended by at least one base within assay time)” in the experiment on Thermosequenase II; “+++” at Tth DNA polymerase; “+/− (up to 25% of primer extended by at least one base within assay time)” at phi-29 DNA polymerase.

Take `Cc1cn([C@H]2C[C@H](O)[C@@](CNC(=O)C(F)(F)F)(COP(=O)(O)OP(=O)(O)OP(=O)(O)O)O2)c(=O)[nH]c1=O` [compound (8), 4′-C-(N-trifluoroacetylaminomethyl)thymidine triphosphate]: the “result of incorporation (termination / further chain extension)” value is given as “T/E” in experiment [1]; “E” in the experiment with SAV RT; “E” in the experiment on Thermosequenase II; “T” on Tth DNA polymerase; “T” at phi-29 DNA polymerase. Besides, the “primer extended” value is “++ (up to 75% of primer extended by at least one base within assay time)” in experiment [1]; “++ (up to 75% of primer extended by at least one base within assay time)” with SAV RT; “−” in experiment [2]; “+ (up to 50% of primer extended by at least one base within assay time)” in the experiment with Thermosequenase II; “+++” at Tth DNA polymerase; “+/− (up to 25% of primer extended by at least one base within assay time)” on phi-29 DNA polymerase.
